In patent EP0551518A1, “QUINOLINECARBOXYLIC ACID DERIVATIVE” (NIPPON SHINYAKU COMPANY, LIMITED, priority 1990, dated 1992):
In brackets after ≈: the same amount, converted by molar mass. Read-outs that look alike come from different tables or passages of the source.

Legend:
Experiment in all cases: Determination of minimal inhibitory concentration of growth (MIC)-1, agar plate dilution method
Type in all cases: cell-based
[1] = test system: Staphylococcus epider-midis IFO 12993; settings: Staphylococcus, IFO12993, 18 h
Description: (§1) Method: MIC was determined by the agar plate dilution method in accordance with the standard protocol of Japan Society of Chemotherapy (cf. Chemotherapy 29 (1), 76-79, 1981). Each bacterial culture obtained by 18-hour incubation in a sensitivity assay bouillon medium at 37°C was diluted to 10⁶ CFU/ml with the same medium. Using a microplanter, a sensitivity assay agar medium containing the test drug was inoculated with the diluted culture and incubated at 37°C for 18 hours. The MIC value was then determined. As reference drugs, 6-fluoro-1-methyl-4-oxo-7-(1-piperazinyl)-4H-[1,3]thiazeto[3,2-a]quinoline-3-carboxylic acid (referred to as control), ciprofloxacin (CPFX) and ofloxacin (OFLX) were used.

[2] = test system: Enterococcus faecalis ATCC 29212
Description: as §1

[3] = test system: Staphylococcus aureus Smith
Description: as §1

[4] = test system: Staphylococcus aureus 209-P JC-1; settings: Staphylococcus aureus, 209P, 18 h
Description: as §1

[5] = test system: Bacillus subtilis ATCC 6633
Description: as §1

Escherichia coli KC-14 = settings: Escherichia coli, KC14, 18 h, 10⁶ CFU/ml, 37°C, read-out: MIC
Description: as §1

[6] = test system: Micrococcus luteus ATCC 9341
Description: as §1

[7] = test system: Staphylococcus aureus OWPH 1984 (MRSA); settings: Staphylococcus aureus, MRSA, 18 h
Description: as §1

[8] = test system: Staphylococcus aureus OWPH 2125 (MRSA, PCA^r ); settings: Staphylococcus aureus, MRSA, 18 h
Description: as §1

[9] = test system: Pseudomonas aeruginosa IFO 3445; settings: Pseudomonas aeruginosa, IFO3445, 18 h
Description: as §1

Proteus vulgaris HX-19 = settings: Proteus vulgaris, HX19, 18 h
Description: as §1

[10] = Staphylococcus epider-midis IFO 12993, agar plate dilution, 10⁶ CFU/ml, 37°C, 18 hours, read-out: MIC
[11] = ATCC29212, Enterococcus faecalis ATCC 29212, agar plate dilution, 10⁶ CFU/ml, 37°C, 18 hours, read-out: MIC
[12] = Staphylococcus aureus Smith, agar plate dilution, 10⁶ CFU/ml, 37°C, 18 hours, read-out: MIC
[13] = Staphylococcus aureus 209-P JC-1, agar plate dilution, 10⁶ CFU/ml, 37°C, 18 hours, read-out: MIC
[14] = ATCC6633, Bacillus subtilis ATCC 6633, agar plate dilution, 10⁶ CFU/ml, 37°C, 18 hours, read-out: MIC
[15] = ATCC9341, Micrococcus luteus ATCC 9341, agar plate dilution, 10⁶ CFU/ml, 37°C, 18 hours, read-out: MIC
[16] = Staphylococcus aureus OWPH 1984 (MRSA), agar plate dilution, 10⁶ CFU/ml, 37°C, 18 hours, read-out: MIC
[17] = Staphylococcus aureus OWPH 2125 (MRSA, PCA^r), agar plate dilution, 10⁶ CFU/ml, 37°C, 18 hours, read-out: MIC
[18] = Pseudomonas aeruginosa IFO 3445, agar plate dilution, 10⁶ CFU/ml, 37°C, 18 hours, read-out: MIC
[19] = Proteus vulgaris HX-19, agar plate dilution, 10⁶ CFU/ml, 37°C, 18 hours, read-out: MIC

| SMILES | MIC (Escherichia coli KC-14) [µg/mL] | MIC [1, 10] [µg/mL] | MIC [2, 11] [µg/mL] | MIC [3, 12] [µg/mL] | MIC [4, 13] [µg/mL] | MIC [5, 14] [µg/mL] | MIC [6, 15] [µg/mL] | MIC [7, 16] [µg/mL] | MIC [8, 17] [µg/mL] | MIC [9, 18] [µg/mL] | MIC (Proteus vulgaris HX-19; [19]) [µg/mL] | other results |
| --- | --- | --- | --- | --- | --- | --- | --- | --- | --- | --- | --- | --- |
| O=C(O)c1cn(C2CC2)c2cc(N3CCNCC3)c(F)cc2c1=O [CPFX, ciprofloxacin, reference compound] | 0.025 (≈ 0.0754 µM) | – | – | – | – | – | – | – | – | – | – | MIC [1]: 0.39 µg/mL (≈ 1.18 µM); MIC ([2]; Enterococcus faecalis, ATCC29212, 18 h): 1.56 µg/mL (≈ 4.71 µM); MIC ([3]; Staphylococcus aureus, 18 h): 0.2 µg/mL (≈ 0.604 µM); MIC [4]: 0.2 µg/mL (≈ 0.604 µM); MIC ([5]; Bacillus subtilis, ATCC6633, 18 h): 0.05 µg/mL (≈ 0.151 µM); MIC ([6]; Micrococcus luteus, ATCC9341, 18 h): 0.39 µg/mL (≈ 1.18 µM); MIC [7]: 0.39 µg/mL (≈ 1.18 µM); MIC [8]: 12.5 µg/mL (≈ 37.7 µM); MIC [9]: 0.2 µg/mL (≈ 0.604 µM); MIC (Proteus vulgaris HX-19): 0.025 µg/mL (≈ 0.0754 µM) |
| COc1c(-c2ccc(N)cc2)c(F)cc2c(=O)c(C(=O)O)c3n(c12)C(C)S3 (centres unmarked) [Example 27, 7-(4-Aminophenyl)-6-fluoro-8-methoxy-1-methyl-4-oxo-4H[1,3]thiazeto[3,2-a]quinoline-3-carboxylic acid] | 0.1 (≈ 0.259 µM) | ≤ 0.006 | 0.05 (≈ 0.129 µM) | ≤ 0.006 | 0.012 (≈ 0.0311 µM) | ≤ 0.006 | 0.1 (≈ 0.259 µM) | ≤ 0.006 | ≤ 0.006 | 0.78 (≈ 2.02 µM) | 0.012 (≈ 0.0311 µM) | – |
| CC1COc2c(N3CCN(C)CC3)c(F)cc3c(=O)c(C(=O)O)cn1c23 (racemic) [OFLX, ofloxacin, reference compound] | 0.05 (≈ 0.138 µM) | 0.39 (≈ 1.08 µM) | 1.56 (≈ 4.32 µM) | 0.2 (≈ 0.553 µM) | 0.39 (≈ 1.08 µM) | 0.1 (≈ 0.277 µM) | 3.13 (≈ 8.66 µM) | 0.39 (≈ 1.08 µM) | 6.25 (≈ 17.3 µM) | 0.78 (≈ 2.16 µM) | 0.05 (≈ 0.138 µM) | – |
| COc1c(-c2ccccc2)c(F)cc2c(=O)c(C(=O)O)c3n(c12)CS3 [Example 21, 6-Fluoro-8-methoxy-4-oxo-7-phenyl-4H-[1,3]thiazeto[3,2-a]quinoline-3-carboxylic acid] | 0.78 (≈ 2.18 µM) | 0.05 (≈ 0.14 µM) | 0.39 (≈ 1.09 µM) | 0.05 (≈ 0.14 µM) | 0.05 (≈ 0.14 µM) | 0.025 (≈ 0.07 µM) | 3.13 (≈ 8.76 µM) | 0.025 (≈ 0.07 µM) | 0.39 (≈ 1.09 µM) | 6.25 (≈ 17.5 µM) | 0.39 (≈ 1.09 µM) | – |
| O=C(O)c1c2n(c3c(F)c(-c4ccccc4)c(F)cc3c1=O)CS2 [Example 19, 6,8-Difluoro-4-oxo-7-phenyl-4H-[1,3]thiazeto[3,2-a]quinoline-3-carboxylic acid] | 0.1 (≈ 0.29 µM) | 0.025 (≈ 0.0724 µM) | 0.2 (≈ 0.579 µM) | ≤ 0.006 | 0.012 (≈ 0.0347 µM) | ≤ 0.006 | 6.25 (≈ 18.1 µM) | 0.025 (≈ 0.0724 µM) | 0.2 (≈ 0.579 µM) | 0.78 (≈ 2.26 µM) | 0.012 (≈ 0.0347 µM) | – |
| Nc1ccc(-c2cc3c(cc2F)c(=O)c(C(=O)O)c2n3CS2)cc1 [Example 31, 7-(4-Aminophenyl)-6-fluoro-4-oxo-4H-[1,3]thiazeto[3,2-a]quinoline-3-carboxylic acid] | 0.025 (≈ 0.073 µM) | ≤ 0.006 | 0.1 (≈ 0.292 µM) | ≤ 0.006 | 0.012 (≈ 0.0351 µM) | ≤ 0.006 | 1.56 (≈ 4.56 µM) | 0.025 (≈ 0.073 µM) | 0.2 (≈ 0.584 µM) | 0.2 (≈ 0.584 µM) | ≤ 0.006 | – |
| O=C(O)c1c2n(c3cc(-c4ccccc4)c(F)cc3c1=O)CS2 [Example 18, 6-Fluoro-4-oxo-7-phenyl-4H-[1,3]thiazeto[3,2-a]quinoline-3-carboxylic acid] | 0.2 (≈ 0.611 µM) | 0.1 (≈ 0.305 µM) | 0.39 (≈ 1.19 µM) | ≤ 0.006 | 0.012 (≈ 0.0367 µM) | ≤ 0.006 | 6.25 (≈ 19.1 µM) | 0.025 (≈ 0.0764 µM) | 0.2 (≈ 0.611 µM) | 0.39 (≈ 1.19 µM) | 0.025 (≈ 0.0764 µM) | – |

Further lines, with some results ahead:

| MIC (Escherichia coli KC-14) [µg/mL] | MIC [1, 10] [µg/mL] | MIC [2, 11] [µg/mL] | MIC [3, 12] [µg/mL] | MIC [4, 13] [µg/mL] | MIC [5, 14] [µg/mL] | MIC [6, 15] [µg/mL] | MIC [7, 16] [µg/mL] | MIC [8, 17] [µg/mL] | MIC [9, 18] [µg/mL] | MIC (Proteus vulgaris HX-19; [19]) [µg/mL] | SMILES | other results |
| --- | --- | --- | --- | --- | --- | --- | --- | --- | --- | --- | --- | --- |
| 0.1 (≈ 0.293 µM) | 0.025 (≈ 0.0732 µM) | 0.1 (≈ 0.293 µM) | ≤ 0.006 | 0.025 (≈ 0.0732 µM) | ≤ 0.006 | 0.39 (≈ 1.14 µM) | 0.012 (≈ 0.0352 µM) | 0.05 (≈ 0.146 µM) | 0.2 (≈ 0.586 µM) | 0.05 (≈ 0.146 µM) | CC1Sc2c(C(=O)O)c(=O)c3cc(F)c(-c4ccccc4)cc3n21 (centres unmarked) [Example 5, 6-Fluoro-1-methyl-4-oxo-7-phenyl-4H-[1,3]thiazeto[3,2-a]quinoline-3-carboxylic acid] | – |
| 0.1 | 0.012 | 0.1 | 0.012 | 0.025 | ≤ 0.006 | 0.39 | 0.012 | 0.05 | 0.39 | 0.025 | CC1Sc2c(C(=O)O)c(=O)c3cc(F)c(-c4ccc(N)cc4)cc3n21.Cl (centres unmarked) [Example 55, 7-(4-Aminophenyl)-6-fluoro-1-methyl-4-oxo-4H-[1,3]thiazeto[3,2-a]quinoline-3-carboxylic acid hydrochloride] | – |
| 0.1 (≈ 0.28 µM) | ≤ 0.006 | 0.1 (≈ 0.28 µM) | ≤ 0.006 | ≤ 0.006 | ≤ 0.006 | 0.1 (≈ 0.28 µM) | 0.012 (≈ 0.0336 µM) | 0.05 (≈ 0.14 µM) | 0.2 (≈ 0.56 µM) | 0.025 (≈ 0.07 µM) | CC1Sc2c(C(=O)O)c(=O)c3cc(F)c(-c4ccc(O)cc4)cc3n21 (centres unmarked) [Example 44, 6-Fluoro-7-(4-hydroxyphenyl)-1-methyl-4-oxo-4H-[1,3]thiazeto[3,2-a]quinoline-3-carboxylic acid] | – |
| 0.2 (≈ 0.52 µM) | ≤ 0.006 | 0.1 (≈ 0.26 µM) | ≤ 0.006 | 0.025 (≈ 0.065 µM) | ≤ 0.006 | 0.39 (≈ 1.01 µM) | 0.025 (≈ 0.065 µM) | 0.05 (≈ 0.13 µM) | 1.56 (≈ 4.06 µM) | 0.05 (≈ 0.13 µM) | CCNc1ccc(-c2cc3c(cc2F)c(=O)c(C(=O)O)c2n3C(C)S2)cc1 (centres unmarked) [Example 47, 7-(4-Ethylaminophenyl)-6-fluoro-1-methyl-4-oxo-4H-[1,3]thiazeto[3,2-a]quinoline-3-carboxylic acid] | – |
| 0.39 (≈ 0.974 µM) | 0.012 (≈ 0.03 µM) | 0.025 (≈ 0.0624 µM) | ≤ 0.006 | 0.025 (≈ 0.0624 µM) | ≤ 0.006 | 0.2 (≈ 0.499 µM) | 0.012 (≈ 0.03 µM) | 0.1 (≈ 0.25 µM) | 3.13 (≈ 7.82 µM) | 0.39 (≈ 0.974 µM) | CNc1ccc(-c2c(F)cc3c(=O)c(C(=O)O)c4n(c3c2OC)C(C)S4)cc1 (centres unmarked) [Example 49, 6-Fluoro-8-methoxy-1-methyl-7-(4-methylaminophenyl)-4-oxo-4H-[1,3]thiazeto[3,2-a]quinoline-3-carboxylic acid] | – |
| 0.1 (≈ 0.281 µM) | 0.05 (≈ 0.14 µM) | 0.2 (≈ 0.561 µM) | ≤ 0.006 | 0.025 (≈ 0.0702 µM) | ≤ 0.006 | 0.78 (≈ 2.19 µM) | 0.012 (≈ 0.0337 µM) | 0.1 (≈ 0.281 µM) | 0.78 (≈ 2.19 µM) | 0.025 (≈ 0.0702 µM) | CNc1ccc(-c2cc3c(cc2F)c(=O)c(C(=O)O)c2n3CS2)cc1 [Example 46, 6-Fluoro-7-(4-methylaminophenyl)-4-oxo-4H-[1,3]thiazeto[3,2-a]quinoline-3-carboxylic acid] | – |
